Test results as given in patent US5430033A, “Piperazine derivatives” (John Wyeth & Brother Ltd., priority 1993, dated 1995).

Columns and labels:
5-HT1A receptor [1] = target: T1, 5-HT1A receptor (Rattus norvegicus, UniProt P19327); assay: 5-HT1A receptor binding activity in rat hippocampal membrane homogenate; details: method of Alexander and Wood
T1 construct: rat hippocampal membrane homogenate; from tissue; host or cells: rat hippocampus, membrane homogenate
T1 sequence (P19327 1-422): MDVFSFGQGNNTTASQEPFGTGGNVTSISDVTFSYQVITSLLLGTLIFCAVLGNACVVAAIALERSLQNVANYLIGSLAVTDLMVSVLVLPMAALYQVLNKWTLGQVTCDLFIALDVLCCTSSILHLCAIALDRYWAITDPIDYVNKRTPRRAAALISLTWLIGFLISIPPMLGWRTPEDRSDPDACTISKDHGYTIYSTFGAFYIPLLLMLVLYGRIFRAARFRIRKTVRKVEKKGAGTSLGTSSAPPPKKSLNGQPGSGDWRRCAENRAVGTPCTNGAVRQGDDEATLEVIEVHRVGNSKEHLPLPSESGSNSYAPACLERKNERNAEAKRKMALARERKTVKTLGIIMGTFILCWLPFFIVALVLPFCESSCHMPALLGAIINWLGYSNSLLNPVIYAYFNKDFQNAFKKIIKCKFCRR
Procedure: The compounds of the invention are tested for 5-HT1A receptor binding activity in rat hippocampal membrane homogenate by the method of B S Alexander and M D Wood, J Pharm Pharmacol, 1988, 40, 888-891.

5-HT1A receptor [2] = target: T2, 5-HT1A receptor (Cavia porcellus, UniProt A0A286Y074); assay: 5-HT1A receptor antagonism: antagonism of 5-carboxamidotryptamine in the guinea-pig ileum in vitro; type: cell-based
T2 construct: guinea-pig ileum in vitro; from tissue; host or cells: guinea-pig ileum
T2 sequence (A0A286Y074 1-421): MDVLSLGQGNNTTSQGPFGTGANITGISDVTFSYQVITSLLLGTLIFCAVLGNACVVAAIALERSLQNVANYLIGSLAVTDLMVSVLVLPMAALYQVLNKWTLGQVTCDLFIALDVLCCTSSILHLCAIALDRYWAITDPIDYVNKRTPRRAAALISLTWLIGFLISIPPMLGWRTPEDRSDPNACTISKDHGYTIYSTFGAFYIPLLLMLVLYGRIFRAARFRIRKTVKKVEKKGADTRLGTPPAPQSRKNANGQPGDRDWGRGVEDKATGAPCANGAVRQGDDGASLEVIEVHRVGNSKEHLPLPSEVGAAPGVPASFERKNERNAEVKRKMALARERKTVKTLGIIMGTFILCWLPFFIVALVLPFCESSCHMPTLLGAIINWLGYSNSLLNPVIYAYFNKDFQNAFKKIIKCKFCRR
Procedure: The compounds are tested for 5-HT1A receptor antagonism activity in a test involving the antagonism of 5-carboxamidotryptamine in the guinea-pig ileum in vitro (based upon the procedure of Fozard et al, Br J Pharmac, 1985, 86, 601P).

IC50 (5-HT1A receptor [1]): 2 nM
pA2, 5-HT1A receptor antagonism (5-HT1A receptor [2]): 8.1
Compound: COc1ccccc1N1CCN(CCc2ccccc2-c2ccccc2)CC1 [Example 3, 1-(2-(2-biphenyl)ethyl)-4-(2-methoxyphenyl)piperazine]
